Source: the supplement of paper PMC6723410

System: GUMC-403
Assay: viability at highest tested concentration (max response) relative to DMSO (% of DMSO control); higher = less cytotoxic
Conditions: library / dose series: MIPE library, 11-point 1:3 dilution; top concentration 23 µM; 48 h
In short: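 This value is viability at the highest tested concentration relative to vehicle control. GUMC-403 papilloma cells from a patient, grown by conditional reprogramming, were plated at 700/well in 1536-well plates and given 23 nL of compound by pin tool for 48 h. CellTiter-Glo luminescence on a ViewLux was normalised with vehicle wells at 100% and empty wells at 0%.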

`Cn1c(CNc2ccc(C(=N)N)cc2)nc2cc(C(=O)N(CCC(=O)O)c3ccccn3)ccc21` showed a viability of 134.

Same assay, conditions: library / dose series: MIPE library, 11-point 1:3 dilution; top concentration 46.1 µM; 48 h

Going from `COCCOC(=O)C/1=C(C)/NC/2=C(C1C3=CC=CC(=C3)O)/C(=O)CC(C2)C4=C(OC)C=CC=C4` (stereo unspecified) to `Cc1cc(OCCC[S+](C)(=O)[O-])cc(C)c1-c1cccc(COc2ccc3c(c2)OC[C@H]3CC(=O)O)c1`, the viability rises from 79.8 to 112.

Compared with `C[C@@H]1CCN(C(=O)CC#N)C[C@@H]1N(C)c1ncnc2[nH]ccc12`, `CNc1nc(-c2ccc3c(N)n[nH]c3c2)cc(N2C[C@@H](C(=O)NC3CCCCC3)CC[C@H]2C)n1` is higher in viability: 79.1 for the first, 87.8 for the second.

Compared with `CN(C)[C@H]\1[C@@H]2C[C@H]3C(=C(O)\[C@]2(O)C(=O)\C(=C1O)C(N)=O)/C(=O)C4=C(O)C=CC=C4[C@@]3(C)O`, `CC1(C)CC(=O)c2c(C(F)(F)F)nn(-c3ccc(C(N)=O)c(NC4CCC(OC(=O)CN)CC4)c3)c2C1` (stereo unspecified) is lower in viability: 106 for the first, 84.3 for the second.

First: C[N]1C=C(C2=CC=CC=C12)\C3=C(\C(=O)NC3=O)C4=C[N](C5CCN(CC5)CC6=NC=CC=C6)C7=C4C=CC=C7
Second: O=C1[C@H](Cc2ccc(O)cc2)N2C(=O)CCN(C(=O)NCc3ccccc3)[C@H]2CN1Cc1cccc2ccccc12
The viability of the first is higher: 128 for the first, 78.2 for the second.

Compared with `CC(=O)OCC(=O)[C@@]1(O)CC[C@H]2[C@@H]3CCC/4=C/C(=O)CC[C@]4(C)[C@H]3C(=O)C[C@]12C`, `C[C@]12CCC(=O)C=C1CC[C@@H]1[C@@H]2[C@@H](O)C[C@@]2(C)[C@H]1CC[C@]2(O)C(=O)CO` is higher in viability: 119 for the first, 135 for the second.

Compared with `COC1=CC=C2[C@H]3CC[C@]4(C)[C@H](CC[C@H]4[C@@H]3CCC2=C1)NCCCCCCN5C(=O)\C=C/C5=O`, `C[C@]12CC[C@@H]3c4ccc(O)cc4CC[C@H]3[C@@H]1CC[C@@H]2O` is lower in viability: 129 for the first, 86.3 for the second.

Going from `c1ccc2c(Cc3c[nH]c4ccccc34)c[nH]c2c1` to `c1ccc(CNc2nc(NCc3ccccc3)c3ccccc3n2)cc1`, the viability falls from 75.9 to 51.8.

First: C[C@]12CC[C@H]3[C@@H](CCC/4=C/C(=O)CC[C@]34C)[C@@H]1CC[C@@H]2O
Second: CCC(=O)OC1CCC2C3CCC/4=C/C(=O)CC[C@@]4(C)C3CC[C@]12C (stereo partly specified)
The viability of the first is lower: 112 for the first, 130 for the second.

Going from `C[C@H](NC(=O)[C@@H](O)c1cc(F)cc(F)c1)C(=O)N[C@@H]1C(=O)N(C)c2ccccc2-c2ccccc21` to `COC(=O)c1ccc2c(c1)NC(=O)/C2=C(\Nc1ccc(N(C)C(=O)CN2CCN(C)CC2)cc1)c1ccccc1`, the viability rises from 99 to 112.

Going from `CC1=CC=CC=C1N2\C(=N/C3=C(C(=CC=C3)C)C2=O)C[N]4C=NC5=C4N=CN=C5N` to `CC(C)n1cnc2c(NCCc3ccc(O)cc3)nc(-c3csc4ccccc34)nc21`, the viability rises from 24.1 to 112.

Compared with `CC(=O)[C@H]1CC[C@H]2[C@@H]3C/C=C4/C[C@@H](O)CC[C@]4(C)[C@H]3CC[C@]12C`, `C[C@]12CC[C@H]3[C@@H](CC(=C)\C4=C\C(=O)\C=C/[C@]34C)[C@@H]1CCC2=O` is lower in viability: 115 for the first, 112 for the second.

First: NC(=O)c1cnc(-c2ccc(C3(N)CCC3)cc2)c(-c2ccccc2)c1
Second: N#CC1(c2ccc(NC(=O)c3cccnc3NCc3ccncc3)cc2)CCCC1
The viability of the first is higher: 103 for the first, 101 for the second.

Compared with `CCCCCCNC(=O)N1\C=C(F)/C(=O)NC1=O`, `COc1cc(CNC(=O)CCCC/C=C/C(C)C)ccc1O` is higher in viability: 106 for the first, 128 for the second.

Going from `Cc1cc(Nc2ncnc3ccc(-c4ccc(CNCC[S+](C)(=O)[O-])o4)cc23)ccc1Oc1ccn2ncnc2c1` to `COc1ccc([S+](=O)([O-])Nc2cccnc2Nc2ccc(O)cc2)cc1`, the viability rises from 99.8 to 99.9.

Going from `C=CC(=O)Nc1cc2c(Nc3ccc(F)c(Cl)c3)ncnc2cc1C#CC(C)(C)N1CCN(C)CC1` to `O=C(CCN1CCN(C(=O)OCc2cc(Cl)cc(Cl)c2)CC1)c1ccc2[nH]c(=O)oc2c1`, the viability rises from 75.9 to 109.

Compared with `CCc1ccc(/C=C2/SC(=S)NC2=O)cc1`, `CCC1(c2ccc(N)cc2)CCC(=O)NC1=O` (stereo unspecified) is lower in viability: 106 for the first, 93.1 for the second.

Compared with `CC[C@H](C)C(=O)O[C@H]1C[C@H](O)\C=C2\C=C/[C@H](C)[C@H](CC[C@@H](O)C[C@@H](O)CC(O)=O)[C@@H]12`, `CCCC[N+]1(C)[C@@H]2CC(OC(=O)[C@H](CO)c3ccccc3)C[C@H]1[C@@H]1O[C@@H]12` (stereo partly specified) is higher in viability: 103 for the first, 114 for the second.

Going from `COc1ccc(C2CNC(=O)C2)cc1OC1CCCC1` (stereo unspecified) to `COc1ccc(CC2NCCc3cc(OC)c(OC)cc32)cc1OC` (stereo unspecified), the viability falls from 136 to 91.3.

Compared with `COc1ccc(Cc2ccc(NC(N)=O)cc2)cc1-c1cccc(Cl)c1`, `COc1ccc(CC2SC(=O)NC2=O)cc1C(=O)NCc1ccc(C(F)(F)F)cc1` (stereo unspecified) is lower in viability: 124 for the first, 95.6 for the second.

Going from `CN1C(=O)/C=C(/NCCN(CCO)CCCC2=CC=C(C=C2)[N+]([O-])=O)N(C)C1=O` to `CN\1C(=O)/C(=C(\N=C1N2CCCC[S+]2([O-])=O)C(=O)NCC3=CC=C(F)C=C3)O`, the viability rises from 94.3 to 121.

First: NC1=C(Cl)C(=CC=N1)OC2=C(F)C=C(NC(=O)\C3=C\N\C=C(C3=O)\C4=CC=C(F)C=C4)C=C2
Second: COc1cc2c(Oc3ccc(NC(=O)C4(C(=O)Nc5ccc(F)cc5)CC4)cc3F)ccnc2cc1OCCCN1CCOCC1
The viability of the first is higher: 108 for the first, 23.1 for the second.

Going from `Cc1noc(-c2ccc(CSCCC(=O)O)cc2)c1NC(=O)OC(C)c1ccccc1Cl` (stereo unspecified) to `Cc1nn(Cc2ccccc2Cl)c(C)c1CN(C)CC(O)COc1ccc(Cl)cc1` (stereo unspecified), the viability falls from 106 to 90.9.

Compared with `CCn1c(=O)c2c(nc(/C=C/c3ccc(OC)c(OC)c3)n2C)n(CC)c1=O`, `COC1=CC=CC2=C1C(=NC(=N2)C3=CC=CS3)NN4C(=O)\C=C(C)/C4=O` is lower in viability: 134 for the first, 80 for the second.

Compared with `CN(C)CC(C)(C)CNc1nn2c(-c3ccccc3)nnc2cc1C1CCC1`, `Cc1ccccc1C(OCCN(C)C)c1ccccc1` (stereo unspecified) is higher in viability: 108 for the first, 127 for the second.

Going from `OC[C@H]1O[C@@H]2[C@@H](OC\3=N\C(=N)\C=C/[N@@]23)[C@@H]1O` to `CCCCC(=O)O[C@]1(C(=O)CO)[C@H](C)C[C@H]2[C@@H]3CCC4=CC(=O)C=C[C@]4(C)[C@@]3(F)[C@@H](O)C[C@@]21C`, the viability falls from 124 to 121.

Compared with `CNC(=O)N1\N=C(\C2=CC=C(N)C=C2)C3=CC4=C(OCO4)C=C3CC1C` (stereo unspecified), `Cc1ccc(C(=O)c2cc(O)c(O)c([N+](=O)[O-])c2)cc1` is lower in viability: 107 for the first, 102 for the second.

Going from `O=C(Nc1ccc(F)c(C(F)(F)F)c1)Nc1nnc(-c2ccncc2)s1` to `Cc1ccc(NC(=O)Nc2cc(C(F)(F)F)ccc2F)cc1Nc1ccc2c(c1)NC(=O)/C2=C\c1ccc[nH]1`, the viability rises from 94 to 99.8.

Going from `CNC[C@H](O)[C@@H](O)[C@H](O)[C@H](O)CO` to `C[C@H]([C@H](O)CCC(C)(C)O)[C@H]1CC[C@@]2(O)C/3=C/C(=O)[C@@H]4C[C@@H](O)[C@@H](O)C[C@]4(C)[C@H]3CC[C@]12C`, the viability falls from 136 to 120.

First: C[C@@H]1CC[C@@]2(CC[C@]3(C)\C(=C/C[C@@H]4[C@@]5(C)C[C@@H](O)[C@H](O)[C@@](C)(CO)[C@@H]5CC[C@@]34C)[C@@H]2[C@H]1C)C(O)=O
Second: CN[C@@H](C)[C@H]1[C@H](O)C[C@@]2(C)[C@@H]3CC[C@H]4C(C)(C)[C@@H](NC)CC[C@@]45C[C@@]35CC[C@]12C
The viability of the first is higher: 114 for the first, 96 for the second.

Going from `OCCC#Cc1nc(-c2ccc(F)cc2)c(-c2ccncc2)n1CCCc1ccccc1` to `O=C1C(CCC(O)c2ccc(F)cc2)C(c2ccc(O)cc2)N1c1ccc(F)cc1` (stereo unspecified), the viability rises from 64 to 94.9.

First: Cc1cccc(-c2[nH]c(C(C)(C)C)nc2-c2ccc3nccnc3c2)n1
Second: COC(=O)Nc1nc2cc(Sc3ccccc3)ccc2[nH]1
The viability of the first is higher: 140 for the first, 95.8 for the second.

Compared with `C[C@]\12CCC(=O)\C=C1[C@@H]3C[C@@H]3[C@@H]4[C@@H]2CC[C@@]5(C)[C@H]4[C@@H]6C[C@@H]6[C@@]57CCC(=O)O7`, `CC[C@]12CC[C@H]3[C@@H](CCC/4=C/C(=O)CC[C@H]34)[C@@H]1CC[C@@]2(O)C#C` is higher in viability: 89.8 for the first, 93.2 for the second.

Going from `C[C@]12CC[C@H]3[C@@H](CC[C@H]4NC(=O)\C=C/[C@]34C)[C@@H]1CC[C@@H]2C(=O)NC5=CC(=CC=C5C(F)(F)F)C(F)(F)F` to `O=C1CCCC(=O)C1C(=O)c1ccc(C(F)(F)F)cc1[N+](=O)[O-]`, the viability rises from 96.3 to 104.

First: O=C(c1ccc(F)c(F)c1Nc1ccc(I)cc1F)N1CC(O)([C@@H]2CCCCN2)C1
Second: Cc1c(C(=O)NN2CCCCC2)nn(-c2ccc(Cl)cc2Cl)c1-c1ccc(Cl)cc1
The viability of the first is lower: 52.2 for the first, 109 for the second.

Going from `CCN[C@H]1C[C@H](C)[S+](=O)([O-])c2sc([S+](N)(=O)[O-])cc21` to `CCNC(=O)c1cc2c(-c3cc(OCCN4CCCC4)c(Cl)cc3Cl)nc(N)nc2s1`, the viability falls from 103 to 58.2.

Compared with `CC(C)NCC(O)COc1ccc(COCCOC(C)C)cc1` (stereo unspecified), `CN(C)CCN(Cc1ccc(Cl)cc1)c1ccccn1.Cl` is lower in viability: 117 for the first, 97.6 for the second.

First: O=[S+]([O-])(O)c1ccc2cc(/N=N/c3cc([S+](=O)([O-])O)c4cccnc4c3O)ccc2c1
Second: Cc1ccc2c(c1)c1c(n2CCc2ccc(C)nc2)CCN(C)C1
The viability of the first is higher: 126 for the first, 108 for the second.

First: NCC1(CC(=O)O)CCCCC1
Second: CCN1\C=C(\C(O)=O)C(=O)C2=C1C=C(N3CCNCC3)C(=C2)F
The viability of the first is lower: 115 for the first, 121 for the second.

First: NC(=O)OCC(COC(N)=O)c1ccccc1
Second: NC(=O)c1ccc2[nH]ccc2c1
The viability of the first is lower: 110 for the first, 122 for the second.

For `Clc1ccc(C(Cn2ccnc2)OCc2c(Cl)cccc2Cl)c(Cl)c1` (stereo unspecified), the viability was 113.

Same assay, conditions: library / dose series: MIPE library, 11-point 1:3 dilution; top concentration 92.2 µM; 48 h

Compound `C[S+]([O-])c1ccc(-c2nc(-c3ccc(F)cc3)c(-c3ccncc3)[nH]2)cc1` (stereo unspecified) has a viability of 71.3.
